From patent publication US8334298B2, “Treatment or prevention of ovarian hyperstimulation syndrome (OHSS) using a dopamine agonist” (Ferring International Center S.A., priority 2005, dated 2012)
Several values for one entry are separate records, joined by “and”; a condition that tells them apart may be missing. Equal entries are not always repeated.

Legend:
[1] = test system: women with PCOS and hyperprolactinemia; details: during ovarian induction with GnRH agonist, FSH and hCG; cited from earlier work
[2] = test system: patient with pituitary adenoma and OHSS; details: cabergoline 0.5 mg twice per week for three weeks; cited from earlier work
[3] = test system: OHSS rats; experiment: Dose response of quinagolide on vascular permeability in OHSS rats (Example 4); type: in vivo, Wistar rats; details: cabergoline 150 ug/kg oral (positive control); single rat; 48-56 h after hCG; listed as Cb
Experimental: Inducing OHSS manifestations. A total of 96 female immature Wistar rats (Harlan Iberica, Sant Feliu de Codina, Barcelona, SPAIN), weighing from 42-48 grams at the beginning of these experiments (day 22), were used to carry out the studies disclosed in Examples 4 and 5. They were injected subcutaneously (s.c) with 10 IU of Pregnant Mare's Serum Gonadotropin (PMSG) (Sigma) for 4 consecutive days (days 22-25), followed by administered intraperitoneally (i.p.) with 30 IU of hCG on the fifth day (day 26) in order to induce OHSS clinical manifestations.
Measuring vascular permeability (VP). VP was used as an index to estimate and compare the degree of development of the illness. VP was measured in all animals 48-56 hours after hCG administration, following methodology previously described (Gomez et al., supra). Briefly, 0.2 ml Evans Blue dye, 0.05 M, was injected through the femoral vein. After 30 minutes, the peritoneal cavity was irrigated with 5 ml saline, pH 6, 22° C., and massaged for 30 seconds to recover extravasated dye. The peritoneal fluid was recovered in 13 ml tubes containing 0.1 ml NaOH. The tubes were centrifuged at 900×g for 12 minutes to avoid protein interference. The supernatant was filtered through 0.22 um filters in order to eliminate ascitic protein/fibrin mucus which could interfere in the posterior measurements. Finally the absorbance of the extravasated dye was measured at 595 nm using a spectrophotometer. Average and average deviations in each group (see below) were calculated. VP was expressed as μg extravasated Evans Blue dye/100 g body weight in each animal.
A total of 70 rats were used for this study. All 70 rats were administered PMSG/hCG to induce OHSS symptoms, as described above. Quinagolide (batch no. 1010003004; supplied by Ferring Labs) was administered to 56 rats. The 56 rats that received quinagolide were used as a dose response test group. […] Cabergoline (Dostinex®) was administered to 6 rats as a positive control. The specific details of the dosing regimen for each group is as follows:
Vehicle control group (quinagolide 0 μg/kg) (n=8). Eight rats were implanted with prolactin placebo pellets, 5 days release, between 10:00 to 11:00 on day 26, just following hCG injection (see General Procedures, above). Six hours after pellet implantation, the rats in this group were orally administered vehicle solution (1:6 alcohol in water mixture) (without quinagolide). They received another oral vehicle administration of vehicle solution 24 hours later. Experimental groups (quinagolide at 0.1, 0.3, 1, 3, 10, 25, 50 μg/kg/day to 7 test groups of rats) (n=8 in each test group). The rats in these groups were implanted with prolactin pellets, 5 days release, between 10:00 to 11:00 on day 26, just following hCG injection (see General Procedures, above). […] In this manner, the desired 0.1, 0.3, 1, 3, 10, 25, 50 μg/kg doses to be assayed were achieved. Twenty four hours later, the rats in this group were administered with another dose of the same amounts of quinagolide. Positive (cabergoline) control group (n=6). These six rats were implanted with prolactin pellets, 5 days release, between 10:00 to 11:00 .m on day 26, just following hCG injection. […] Twenty four hours later, the rats in this group were administered with another dose of the same amount of cabergoline. […] Reconstitution and dilution process to reach appropriate quinagolide doses for oral administration. Appropriate doses were prepared fresh just prior to being administered (on day 26). A single quinagolide vial, containing approximately 2.30-2.30 mg quinagolide, was employed for each single set of animals. For each solution, approximately 2.30-2.30 mg quinagolide was diluted in a vehicle solution (1:6 alcohol:water mixture) to achieve a stock concentration of 100 μg quinagolide per ml solution. […]

[4] = test system: women at risk of developing moderate-severe early OHSS; experiment: Prospective, randomized, double blind study of cabergoline in oocyte donors at risk of OHSS (Example 6); type: in vivo
Experimental: Materials and Methods. Example 5 is a prospective, randomized and double blind study of 54 oocyte donors in whom 20-30 follicles greater than 12 mm developed, and from whom more than 20 oocytes were retrieved. Immediately after hCG administration, patients were divided in two groups based on a computer randomization: 1) the study group (n=29) received 0.5 mg oral cabergoline daily for eight days; the control group (n=25) received one tablet of placebo for the same eight days. The patients were monitored every 48 hours from the day of hCG administration (day 0) up through day 8. The presence of ascites was defined as a pocket of peritoneal fluid greater than 9 cm^2, with the patient in litotomy position seen on vaginal ultrasound. Also, regular blood parameters and serum PRL levels were recorded.

C=CCN1C[C@H](C(=O)N(CCCN(C)C)C(=O)NCC)C[C@@H]2c3cccc4[nH]cc(c34)C[C@H]21 [Cabergoline, cabergoline]
risk of OHSS [1]: reduce the risk of OHSS
prolactin levels [2]: normalized prolactin levels
Absorbance at 595 nm [3]: 0.356 and 0.034 and 0.1 (2×) and 0.293
μg EB per 100 g body weight [3]: 21.56 μg EB per 100 g body weight and 2.118 μg EB per 100 g body weight and 6.507 μg EB per 100 g body weight and 6.229 μg EB per 100 g body weight and 17.99 μg EB per 100 g body weight
μg Evans Blue (Abs * 4360) [3]: 1552.16 μg and 148.24 μg and 436 μg (2×) and 1277.48 μg
Haemoglobin day 4 ([4]; 0.5 mg oral cabergoline daily for eight days, n=29, mean ± SEM, p 0.006 vs control): 12.7 ± 1.2 g/dL
Haemoglobin day 6 ([4]; 0.5 mg oral cabergoline daily for eight days, n=29, mean ± SEM, p 0.01 vs control): 12.9 ± 1.2 g/dL
Free fluid area day 6 ([4]; 0.5 mg oral cabergoline daily for eight days, n=29, mean ± SEM, p 0.03 vs control): 8.8 ± 1.7 cm2
Hematocrit day 6 ([4]; 0.5 mg oral cabergoline daily for eight days, n=29, mean ± SEM, p 0.04 vs control): 38.9 ± 3.9%
Ascites % ([4]; 0.5 mg oral cabergoline daily for eight days, 7/29 patients, ascites = pocket of peritoneal fluid greater than 9 cm^2, p 0.01 vs control): 24.1 7/29%
Serum PRL levels ([4]; 0.5 mg oral cabergoline daily, days 2, 4, 6 and 8 as compared to controls, p<0.0001): significantly lower
